# Measured values from publication PMC10682101, “In vitro pharmacological characterization of standard and new lysophosphatidic acid receptor antagonists using dynamic mass redistribution assay” (Frontiers in Pharmacology, 2023).
# Read-outs that look alike come from different tables or passages of the source.
# Experiments:
# [1] = target: T1, human LPA2 receptor (Homo sapiens, UniProt Q9HBW0); experiment: Dynamic mass redistribution (DMR) assay in CHOLPA2 cells; conditions: for Shift of the concentration–response curve to LPA: antagonism protocol, 1 µM; for DMR response: CHOLPA2 cells, compound 10 μM, mean ± s.e.m.
# Description: Confluent cells were sub-cultured using trypsin/EDTA and used for experiments. Cells were seeded at a density of 20,000 cells/well in 30 µL into fibronectin-coated EnspireTM-LC 384-well plates and cultured for 20 h to form a confluent monolayer. On the day of the experiment, the cells were manually washed twice and maintained with assay buffer (HBSS with 20 mM HEPES, 0.01% BSA) for 90 min before DMR experiments. DMR was monitored in real time with a temporal resolution of 44 s throughout the assay. Experiments were performed at 37°C using an EnSight Multimode Plate Reader (PerkinElmer). The agonism protocol was as follows: before addition of the ligand, the DMR signal was measured for 5 min, and the average of the signals recorded during this period was set as the baseline (pm = 0). Compounds are added manually in a volume of 10 µL, and the triggered DMR signals were recorded for 60 min. […] Responses were described in the form of picometer shift over time (seconds) following the subtraction of values from vehicle-treated wells. Maximum picometer (pm) modification (peak) and area under the curve (AUC) were used to determine the agonist response.
# All data were analyzed using GraphPad Prism 9.4 (La Jolla, CA, United States). Concentration–response curves were fitted using the four-parameter log-logistic equation. Data are expressed in the form mean ± s.e.m. across n experiments performed in duplicate. […] In practice, equiactive concentrations of the agonist in the absence ([A]) and presence ([A’]) of a non-competitive antagonist ([B]) were compared in a double reciprocal plot describing a straight line, and pKB was derived from the equation: pKB = log[(slope—1)/[B]]. […] Maximal effect data were analyzed using the Student’s t-test or a one-way ANOVA followed by Dunnett’s post-hoc test.
# [2] = system: LPA1 receptor; set-up: method as in Shimizu and Nakayama, 2017; conditions: cAMP assay; ref Shimizu and Nakayama, 2017; cited from earlier work
# [3] = target: T1, human LPA2 receptor; experiment: Calcium mobilization assay in CHOLPA2 cells; conditions: for Effect per se / Shift of the concentration–response curve to LPA: 1 µM; for Effect per se: data not shown; for Agonism Emax / Agonism pEC50: #inactive at 1 μM; for Shift of the concentration–response curve to LPA: antagonism protocol
# [4] = target: T2, human LPA1 receptor (Homo sapiens, UniProt Q92633); experiment: Calcium mobilization assay in CHOLPA1 cells; conditions: for Effect per se: 1 µM, data not shown; for Shift of the concentration–response curve to LPA: antagonism protocol (compound 35, compound 20 at 1 µM)
# [5] = system: LPA1 receptor; set-up: method as in Ohta et al., 2003; conditions: GTPγS binding assay; ref Ohta et al., 2003; cited from earlier work
# [6] = target: T2, human LPA1 receptor; experiment: Dynamic mass redistribution (DMR) assay in CHOLPA1 cells; conditions: for Shift of the concentration–response curve to LPA: antagonism protocol; for Agonism Emax: negative DMR signal; for DMR response: CHOLPA1 cells, compound 10 μM, mean ± s.e.m.
# Description: All data were analyzed using GraphPad Prism 9.4 (La Jolla, CA, United States). Concentration–response curves were fitted using the four-parameter log-logistic equation. Data are expressed in the form mean ± s.e.m. across n experiments performed in duplicate. Agonist potency is expressed in the form pEC50, which is the negative logarithm to base 10 of the agonist molar concentration that produces 50% of the maximal possible effect of that agonist. […] In practice, equiactive concentrations of the agonist in the absence ([A]) and presence ([A’]) of a non-competitive antagonist ([B]) were compared in a double reciprocal plot describing a straight line, and pKB was derived from the equation: pKB = log[(slope—1)/[B]]. […] Maximal effect data were analyzed using the Student’s t-test or a one-way ANOVA followed by Dunnett’s post-hoc test.
# [7] = system: LPA1 receptor; set-up: method as in Ohta et al., 2003; conditions: inositol phosphate test; ref Ohta et al., 2003; cited from earlier work
# [8] = system: LPA1/3; set-up: method as in Ohta et al., 2003; conditions: ref Ohta et al., 2003; cited from earlier work
# [9] = system: CHO wild-type cells; experiment: DMR assay in CHO wild-type cells (control); format: cell-based; conditions: for DMR response: CHO cells, compound 10 μM, mean ± s.e.m.
# Description: Confluent cells were sub-cultured using trypsin/EDTA and used for experiments. Cells were seeded at a density of 20,000 cells/well in 30 µL into fibronectin-coated EnspireTM-LC 384-well plates and cultured for 20 h to form a confluent monolayer. On the day of the experiment, the cells were manually washed twice and maintained with assay buffer (HBSS with 20 mM HEPES, 0.01% BSA) for 90 min before DMR experiments. DMR was monitored in real time with a temporal resolution of 44 s throughout the assay. Experiments were performed at 37°C using an EnSight Multimode Plate Reader (PerkinElmer). The agonism protocol was as follows: before addition of the ligand, the DMR signal was measured for 5 min, and the average of the signals recorded during this period was set as the baseline (pm = 0). Compounds are added manually in a volume of 10 µL, and the triggered DMR signals were recorded for 60 min. The antagonism protocol was as follows: antagonists were added manually 25 min before reading the 5 min baseline. […] Responses were described in the form of picometer shift over time (seconds) following the subtraction of values from vehicle-treated wells. Maximum picometer (pm) modification (peak) and area under the curve (AUC) were used to determine the agonist response.
# [10] = target: LPA1/3; set-up: method as in Ohta et al., 2003; conditions: LPA1/3 antagonist; ref Ohta et al., 2003; read-out: Ki estimated from binding experiments; cited from earlier work
# [11] = target: LPA2 receptor; set-up: method as in Schiemann et al., 2012; conditions: inhibition of LPA effects on Ca2+ mobilization, cells expressing LPA2; ref Schiemann et al., 2012; cited from earlier work
# [12] = CHOLPA2, DMR, negative DMR signal, peak, up to 10 µM (compound 35 up to 1 µM), °inactive at 10 μM
# [13] = CHOLPA1, calcium mobilization, *inactive at 0.1 µM
# [14] = CHOLPA1, DMR, peak, up to 10 µM (compound 35 up to 1 µM), °inactive at 10 μM
# [15] = CHOLPA1, calcium mobilization, #inactive at 1 μM
# T1 sequence (Q9HBW0 whole entry): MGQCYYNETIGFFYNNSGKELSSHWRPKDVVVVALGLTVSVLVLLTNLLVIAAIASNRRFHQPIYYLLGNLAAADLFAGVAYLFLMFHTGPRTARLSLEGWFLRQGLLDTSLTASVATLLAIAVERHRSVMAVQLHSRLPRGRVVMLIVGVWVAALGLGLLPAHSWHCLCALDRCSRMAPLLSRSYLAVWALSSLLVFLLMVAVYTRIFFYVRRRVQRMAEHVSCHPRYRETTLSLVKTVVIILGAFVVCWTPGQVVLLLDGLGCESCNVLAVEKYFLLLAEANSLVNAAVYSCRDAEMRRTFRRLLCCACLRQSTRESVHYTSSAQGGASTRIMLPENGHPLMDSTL
# T2 sequence (Q92633 whole entry): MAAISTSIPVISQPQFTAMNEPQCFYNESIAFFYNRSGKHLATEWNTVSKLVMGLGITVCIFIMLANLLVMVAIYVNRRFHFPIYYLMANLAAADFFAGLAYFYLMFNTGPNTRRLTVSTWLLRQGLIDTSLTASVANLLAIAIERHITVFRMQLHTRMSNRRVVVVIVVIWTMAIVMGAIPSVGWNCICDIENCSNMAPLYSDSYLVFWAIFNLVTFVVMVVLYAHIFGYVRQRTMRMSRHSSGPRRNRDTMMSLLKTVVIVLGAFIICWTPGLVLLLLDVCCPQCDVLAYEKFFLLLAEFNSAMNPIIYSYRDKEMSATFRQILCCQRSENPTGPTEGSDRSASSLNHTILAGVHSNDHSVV
"Agonism Emax [1, 12]",DMR response [1],"Effect per se ([3]; CHOLPA2, calcium mobilization)","Agonism Emax ([3]; CHOLPA2, calcium mobilization)","Agonism pEC50 ([3]; CHOLPA2, calcium mobilization)","Effect per se ([4]; CHOLPA1, calcium mobilization)","Agonism Emax [6, 14]",DMR response [6],SMILES,"Shift of the concentration–response curve to LPA ([1]; CHOLPA2, DMR)","Shift of the concentration–response curve to LPA ([3]; CHOLPA2, calcium mobilization)","Shift of the concentration–response curve to LPA ([4]; CHOLPA1, calcium mobilization)","Shift of the concentration–response curve to LPA ([6]; CHOLPA1, DMR, 1 µM)",DMR response [9],further results
Crc incomplete,−95 ± 4 pm,did not produce any effect per se,Inactive^#,Inactive^#,did not produce any effect per se,−110 ± 17 pm,−101 ± 7 pm,Cc1noc(-c2ccc(CSCCC(=O)O)cc2)c1NC(=O)OC(C)c1ccccc1Cl (stereo not shown) [KI 16425],shifted the concentration–response curve to LPA to the right,shifted the concentration–response curve to LPA to the right,shifted the concentration–response curve to LPA to the right,shifted the concentration–response curve to LPA to the right,−42 ± 7 pm,"DMR effect per se ([1]; CHOLPA2, DMR, concentration–response up to highest concentration tested): inactive per se, or slightly active only at the higher concentration tested; Agonism pEC50 [1, 12]: Crc incomplete; Inverse agonism activity [2]: slight degree of inverse agonism activity; Kb ([4]; Antagonism pKB (pKB/pA2), CHOLPA1, calcium mobilization, Gaddum method, LPA curve in absence and presence of 0.1 µM antagonist): 3.09 nM; Agonism Emax [4, 13]: Inactive*; Agonism pEC50 [4, 13]: Inactive*; Antagonism pKB (pKB/pA2) ([4]; CHOLPA1, calcium mobilization, Gaddum method, LPA curve in absence and presence of 0.1 µM antagonist): ~8.5; Effect on LPA maximal effect ([4]; CHOLPA1, calcium mobilization, tested as antagonist): reduced the LPA maximal effect in a concentration-dependent manner; Inverse agonism activity [5]: slight degree of inverse agonism activity; EC50 ([6]; Agonism pEC50, CHOLPA1, DMR, negative DMR signal (inverse agonism), peak, up to 10 µM (compound 35 up to 1 µM), °inactive at 10 μM): 67.6 nM; Effect on LPA maximal effect ([6]; CHOLPA1, DMR, tested as antagonist, 1 µM): without changing the maximal effect; Inverse agonism activity [7]: this has not been replicated; Selectivity for LPA1/3 vs. LPA2 [8]: 20 fold; Ki [10]: 670 nM"
−94 ± 6 pm,−119 ± 25 pm,did not produce any effect per se,Inactive^#,Inactive^#,did not produce any effect per se,Inactive°,−31 ± 17 pm,O=C1C[C@@](O)(C(F)(F)F)c2c(-c3cccc(F)c3)n[nH]c2N1 [Compound 20],shifted the concentration–response curve to LPA to the right,shifted the concentration–response curve to LPA to the right,did not shift the concentration–response curve to LPA to the right,did not shift the concentration–response curve to LPA to the right,−26 ± 8 pm,"EC50 [1]: 148 nM; Agonism Emax ([1]; CHOLPA2, DMR, negative DMR signal, peak, up to 10 µM (compound 35 up to 1 µM), °inactive at 10 μM, listed as Merck compound 20): −94 pm; Time of maximum peak modification of the DMR response after administration ([1]; CHOLPA2, DMR, slow onset): ~60 min; Kb [3]: 56.2 nM; Effect on LPA maximal effect ([3]; CHOLPA2, calcium mobilization, tested as antagonist): induced a reduction in LPA maximal effects; Kb ([4]; Antagonism pKB/pA2, CHOLPA1, calcium mobilization, LPA curve in absence and presence of 1 µM compound): > 1000 nM; Agonism Emax [4, 15]: Inactive^#; Agonism pEC50 [4, 15]: Inactive^#; Agonism pEC50 ([6]; CHOLPA1, DMR, negative DMR signal (inverse agonism), peak, up to 10 µM (compound 35 up to 1 µM), °inactive at 10 μM): Inactive°; DMR effect per se ([6]; CHOLPA1, DMR, up to highest concentration tested (10 μM; compound 35 1 µM)): inactive up to 10 μM; DMR effect per se ([9]; CHO wild-type cells, 10 µM): failed to evoke effects per se; pIC50 [11]: > 6"
